# Source: patent US20250134863A1, “MEDICAL AGENT FOR TREATING OR SUPPRESSING PROGRESSION OF AMYOTROPHIC LATERAL SCLEROSIS” (MITSUBISHI TANABE PHARMA CORPORATION, priority 2022, published 2025)
# “And” between values parts separate entries of the source, which are not always exact repeats. Equal values may be shown once.
# Tests used:
# [1] = system: ALS patients; test: Post-hoc statistical analysis 1: percent change in ALSFRS-R slope on transition from placebo to edaravone (16, 17 and 19 trials); type: in vivo, human; conditions: for Percentage change in ALSFRS-R slope, Median: Wilcoxon p=0.0433
# Source text: After a 12-week observation period, patients whose ALSFRS-R total score decreased by 1 to 4 points during that period were considered eligible for the trial. In the 16 trial, eligible patients were randomly divided into an edaravone treatment group and a placebo administration group, and patients in each group received administration for 24 weeks (cycles 1 to 6). After completing the 24-week double-blind portion of the 16 trial, patients who received edaravone (E) were randomly assigned to the 17 trial, and during a 24-week double-blind extension period (cycles 7 to 12), edaravone treatment (EE group) or placebo administration (EP group) was performed. On the other hand, all patients from the placebo (P) administration group received edaravone treatment (PE group). All patients received open-label edaravone treatment for the next 12 weeks (cycles 13 to 15).
# Edaravone was administered at a dose of 60 mg by intravenous infusion over 60 minutes, once daily. The infusion was given for 14 days in the first treatment cycle, and for 10 days out of the 14-day treatment period in all subsequent cycles. A 14-day drug holiday period was provided after each treatment cycle.
# Similar to the 16 trial, after a 12-week observation period, patients in the 19 trial were randomly divided into an edaravone treatment group and a placebo administration group, and patients in each group received administration for 24 weeks (cycles 1 to 6). In the 19 trial, after the double-blind treatment period, all patients received open-label edaravone treatment for an additional 24 weeks (cycles 7 to 12). Therefore, the 19 trial included an EE group and a PE group.
# (§1) In the present analysis, efficacy was analyzed for placebo patients who had completed the 24-week double-blind period (cycles 1 to 6) and had at least one data point in cycle 7. To estimate the percent change in ALSFRS-R slope for transition from placebo administration (baseline to 24 weeks) to edaravone administration (24 weeks 24 to 48 weeks), a random coefficient model was applied to all available ALSFRS-R score data during this period.
# (§2) A 25% improvement group meets both of the following criteria:
# (§3) (1) ALSFRS-R slope % change ≥+25% (this change is defined as a clinically significant improvement (Reference 5: Amyotroph Lateral Scler 2010; 11 (1-2): 178-180)) and (2) ALSFRS-R total score at the start of cycle 7 (24 weeks)>24 points (half of the 48-point ALSFRS-R total score) (this helps avoid floor effects related to the ALSFRS-R total score that could lead to false positives in the analysis).
# (§4) These criteria were used to define a 25% improvement group and a non-25% improvement group. Using a mixed model for repeated measures, the changes in uric acid levels from the start of cycle 7 (24 weeks) to cycle 12 (48 weeks) were summarized for the 25% improvement group and the non-25% improvement group. The correlation between the change in uric acid levels from 24 weeks to 48 weeks and the ALSFRS-R slope percent change was descriptively summarized using the Wilcoxon test.
# [2] = system: ALS patients; test: Post-hoc statistical analysis 1: blood uric acid levels in 25% improvement and non-25% improvement groups; type: in vivo, human
# Procedure: The blood uric acid levels in the 16 trial, 17 trial, and 19 trial were measured values obtained using the uricase-peroxidase method.
# as §1, §2, §3, §4
# [3] = entire placebo-edaravone treatment population
# [4] = 25% improvement group, ALS severity grade 3 to 5
# [5] = 25% improvement group, ALS severity grade 3 to 5, first change section of Table 3 (n=21)
# [6] = 25% improvement group, ALS severity grade 3 to 5, second change section of Table 3 (n=18)
# [7] = 25% improvement group, all severities
# [8] = non-25% improvement group, ALS severity grade 3 to 5
# [9] = non-25% improvement group, ALS severity grade 3 to 5, first change section of Table 3 (n=39)
smiles,measurement,setting,value
"CC1=NN(c2ccccc2)C(=O)C1 [edaravone, 3-methyl-1-phenyl-2-pyrazolin-5-one]",proportion of patients showing improvement in ALSFRS-R slope,[1]; ALS severity grade 3,64.3%
same,"proportion of patients with at least a 25% improvement in ALSFRS-R slope, cutoff of 24 points",[1]; ALS severity grade 3,35.7%
same,proportion of patients showing improvement in ALSFRS-R slope,[1]; ALS severity grade 4,66.7%
same,"proportion of patients with at least a 25% improvement in ALSFRS-R slope, cutoff of 24 points",[1]; ALS severity grade 4,33.3%
same,patients with 25% improvement in ALSFRS-R slope of edaravone compared to placebo,"[1]; ALS severity of grade 3 or 4 at the start of cycle 7, about one-third",21/60
same,"Percentage change in ALSFRS-R slope, Median",[1]; change in uric acid level >0 (n=41),14%
same,"Percentage change in ALSFRS-R slope, Mean (SD)",[1]; change in uric acid level >0 from start of cycle 7 to last administration of cycle 12 (n=41),−64 (199) %
same,"Percentage change in ALSFRS-R slope, Median",[1]; change in uric acid level ≤0 (n=105),−38%
same,"Percentage change in ALSFRS-R slope, Mean (SD)",[1]; change in uric acid level ≤0 from start of cycle 7 to last administration of cycle 12 (n=105),−201 (664) %
same,proportion of patients showing improvement in ALSFRS-R slope upon transition from placebo to edaravone treatment,[1]; [3],43.2% and 43%
same,"proportion of patients with at least a 25% improvement in ALSFRS-R slope, cutoff of 24 points",[1]; [3],24%
same,"Uric acid level at final administration of Cycle 7, Mean (SD)",[2]; [4],4.65 (1.49) mg/dL
same,"Uric acid level at final administration of Cycle 12, Mean (SD)",[2]; [4],4.61 (1.48) mg/dL
same,"Uric acid change from start of Cycle 7 to final administration of Cycle 12, LS mean (SE)",[2]; [5],−0.37 (0.24) mg/dL
same,"Uric acid change from start of Cycle 7 to final administration of Cycle 12, Mean (SD)",[2]; [5],0.05 (0.47) mg/dL
same,"Uric acid change from start of Cycle 7 to final administration of Cycle 12, LS mean (SE)",[2]; [6],−0.42 (0.24) mg/dL
same,"Uric acid change from start of Cycle 7 to final administration of Cycle 12, Mean (SD)",[2]; [6],0.04 (0.60) mg/dL
same,"Uric acid change from start of Cycle 7 to final administration of Cycle 7, LS mean (SE)",[2]; [7],−0.16 mg/dL and −0.16 (0.15) mg/dL
same,"Uric acid change from start of Cycle 7 to final administration of Cycle 7, Mean (SD)",[2]; [7],0.05 mg/dL and 0.05 (0.49) mg/dL
same,"Uric acid change from start of Cycle 7 to final administration of Cycle 12, LS mean (SE)",[2]; [7],−0.28 mg/dL and −0.28 (0.15) mg/dL
same,"Uric acid change from start of Cycle 7 to final administration of Cycle 12, Mean (SD)",[2]; [7],−0.04 mg/dL and −0.04 (0.68) mg/dL
same,"Uric acid level at final administration of Cycle 12, Mean (SD)",[2]; [7],4.51 (1.43) mg/dL
same,"Uric acid level at final administration of Cycle 7, Mean (SD)","[2]; 25% improvement group, all severities, 2 weeks after starting edaravone",4.63 (1.45) mg/dL
same,"Uric acid change from start of Cycle 7 to final administration of Cycle 12, LSMD (SE) between 25% improvement group and non-25% improvement group","[2]; ALS severity grade 3 to 5, first change section of Table 3, p=0.1701",0.24 (0.18) mg/dL
same,"Uric acid change from start of Cycle 7 to final administration of Cycle 12, LSMD (SE) between 25% improvement group and non-25% improvement group","[2]; ALS severity grade 3 to 5, second change section of Table 3, p=0.0044",0.55 (0.19) mg/dL
same,"Uric acid change from start of Cycle 7 to final administration of Cycle 12, LSMD (SE) between 25% improvement group and non-25% improvement group","[2]; all severities, p=0.0252",0.28 mg/dL and 0.28 (0.12) mg/dL
same,"Uric acid change from start of Cycle 7 to final administration of Cycle 7, LSMD (SE) between 25% improvement group and non-25% improvement group","[2]; all severities, p=0.0726",0.21 mg/dL and 0.21 (0.12) mg/dL
same,"Uric acid level at final administration of Cycle 7, Mean (SD)",[2]; [8],4.31 (1.10) mg/dL
same,"Uric acid level at final administration of Cycle 12, Mean (SD)",[2]; [8],4.18 (1.00) mg/dL
same,"Uric acid change from start of Cycle 7 to final administration of Cycle 12, LS mean (SE)",[2]; [9],−0.61 (0.21) mg/dL
same,"Uric acid change from start of Cycle 7 to final administration of Cycle 12, Mean (SD)",[2]; [9],−0.22 (0.60) mg/dL
same,"Uric acid change from start of Cycle 7 to final administration of Cycle 12, LS mean (SE)","[2]; non-25% improvement group, ALS severity grade 3 to 5, second change section of Table 3 (n=24)",−0.98 (0.22) mg/dL
